Measurements from patent US20230149355A1, “COMPOSITIONS AND METHODS FOR MODULATING TRP CHANNEL ACTIVITY” (priority 2020, published 2023).

Columns and labels:
intestinal motility = assay: Zebrafish intestinal motility (PIV-Lab velocity analysis); type: in vivo; conditions: AhR inhibitor 10 μM or folic acid 10 μM for 2 hours
Description: For EEC Trpa1 activation using the Optovin platform, zebrafish larvae were treated with 10 μM Optovin overnight. Following Optovin treatment, unanesthetized zebrafish were mounted in 1% LMA and imaged under a 780 upright Zeiss confocal microscope using 20× water objective lenses. For all the experiments, the mid-intestine region was imaged (FIG. 10D). The intestinal epithelium was selected as the region of interest (ROI) (FIG. 10A). Serial images were obtained at 1 s/frame. A 405 nm pulse of light was applied to the ROI at 1 pulse/10 s. For some experiments (FIG. 7D-F, FIG. 10B-G), the images were obtained at 10 s/frame.
The zebrafish intestinal motility is quantified through recorded image series of zebrafish intestine using the method similar as previously described (Ganz et al., 2018). Intestinal p velocity and v velocity were used to estimate intestinal motility in zebrafish as previously described using the PIV-Lab MATLAB app (Ganz et al., 2018). A positive value of the μ velocity indicates an anterograde intestinal movement and a negative value of the μ velocity indicates a retrograde intestinal movement. The time-course p velocity number is plotted as heatmaps. When calculating the mean velocity, only the mean velocity magnitude was calculated, which therefore doesn't account for the movement direction. The MTrackJ FIJI plugin was used to quantify the mean velocity magnitude (Meijering et al., 2012).

E. tarda = assay: Intestinal E. tarda mCherry accumulation in zebrafish treated with AhR inhibitors; type: in vivo; conditions: AhR inhibitor 1 μM or folic acid 10 μM, 3 dpf to 6 dpf
Description: For E. tarda colonization experiments, fertilized zebrafish eggs were collected, sorted and transferred into a cell culture flask containing 80 mL GZM at 0 dpf. At 3 dpf, dead embryos and 60 mL GZM were removed and replaced with 50 mL fresh GZM in each flask. To facilitate consistent commensal gut bacterial colonization, an additional 10 mL of filtered system water (5 μm filter, SLSV025LS, Millipore) were added to each flask. Overnight E. tarda mCherry culture was harvested, washed three times with GZM. 150 μL of GZM-washed E. tarda mCherry culture were inoculated into each flask. The E. tarda concentration is ˜10^6 CFU/ml. […] At 6 dpf, zebrafish larvae were subjected to fluorescence imaging analysis or CFU quantification. For fluorescence imaging analysis, zebrafish larvae were anesthetized with Tricaine ([…]), mounted in 3% methylcellulose and imaged with a Leica M205 FA upright fluorescence stereomicroscope equipped with a Leica DFC 365FX camera. For CFU quantification, digestive tracts were dissected and transferred into 1 mL sterile PBS which was then mechanically disassociated using a Tissue-Tearor (BioSpec Products, 985370). […] The mCherry+ colonies were quantified from each plate and E. tarda colony forming units (CFUs) per fish were calculated. […]

AhR = target: T1, AhR (Homo sapiens, UniProt P35869); conditions: Kim et al., 2020; cited from earlier work
T1 sequence (P35869 11-848): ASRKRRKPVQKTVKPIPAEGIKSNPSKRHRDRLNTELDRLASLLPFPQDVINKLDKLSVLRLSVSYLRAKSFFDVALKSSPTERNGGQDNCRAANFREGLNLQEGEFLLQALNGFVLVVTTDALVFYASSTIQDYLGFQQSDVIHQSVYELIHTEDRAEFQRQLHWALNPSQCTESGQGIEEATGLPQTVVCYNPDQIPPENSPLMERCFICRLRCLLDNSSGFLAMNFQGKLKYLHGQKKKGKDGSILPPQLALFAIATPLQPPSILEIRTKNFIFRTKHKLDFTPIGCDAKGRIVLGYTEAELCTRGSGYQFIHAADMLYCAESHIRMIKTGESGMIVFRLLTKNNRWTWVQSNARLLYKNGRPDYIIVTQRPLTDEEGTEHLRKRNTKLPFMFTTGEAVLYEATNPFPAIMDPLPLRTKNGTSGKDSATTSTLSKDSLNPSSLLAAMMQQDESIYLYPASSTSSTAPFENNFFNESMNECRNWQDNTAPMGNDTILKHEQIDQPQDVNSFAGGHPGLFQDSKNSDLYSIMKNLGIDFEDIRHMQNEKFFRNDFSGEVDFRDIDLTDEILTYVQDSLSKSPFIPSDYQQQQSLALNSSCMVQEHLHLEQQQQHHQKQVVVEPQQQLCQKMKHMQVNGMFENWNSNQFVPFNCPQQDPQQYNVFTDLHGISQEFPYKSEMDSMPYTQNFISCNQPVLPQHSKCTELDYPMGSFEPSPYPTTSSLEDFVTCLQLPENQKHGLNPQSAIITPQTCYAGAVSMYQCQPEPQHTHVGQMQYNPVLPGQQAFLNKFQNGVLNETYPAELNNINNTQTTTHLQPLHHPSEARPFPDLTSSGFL

AhR signaling = conditions: 0.05 μM; cited from earlier work

SMILES: Nc1nc2ncc(CNc3ccc(C(=O)N[C@@H](CCC(=O)O)C(=O)O)cc3)nc2c(=O)[nH]1 [Folic acid]
- Effect on Optovin-UV induced intestinal motility change (intestinal motility): insufficient to block
- Effect on E. tarda intestinal accumulation (E. tarda): insufficient to block
- Concentration at which it acts as a competitive AhR antagonist (as low as) (AhR): 10 ng/mL
- Inhibition of AhR signaling in early zebrafish embryos (AhR signaling): inhibits
